Measured values reported in the supplement of paper PMC11208160.

Assay: recombinant UMI read abundance after kanamycin selection (control-corrected) (log10(CPM+1)); higher = more efficient recombination; extreme values may be limits of the assay; sequences stand for … in AGTGCAGAGAAAATCGGCCAGTTTTCTCTGCCTGCAGTCCGCATGCCGTGGGACCCCTTGGGTTCTAACCTGTTGCCTAGATTTATGCAGCGGACTGCCTTTCTCCCAAAGTGATAAACCGG…AGGTTGGTTTCACT; site = the 11-nt donor
Experimental: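 Pooled E. coli donor-specificity screen for the IS621 bridge recombinase. Each library member carries a reprogrammed 11-nt donor and a full-length LE bridge RNA expressed in cis from the natural promoter, with a paired donor-binding loop (8-nt LDG + 4-nt RDG) and a target-binding loop fixed to T5. It is co-electroporated with a T5 target plasmid; recombinase is induced with 0.07 mM IPTG and recombinants are selected on kanamycin. UMIs are counted as CPM, averaged over two biological replicates and corrected by the unselected control. Molecule = full bridge RNA written as DNA, built from the T5 scaffold: LDG = donor specificity nt 1-8, RDG = reverse complement of nt 8-11.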
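Further: IS621 bridge recombinase in Escherichia coli cells against a fixed T5 target plasmid.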

| Sequence | recombinant UMI read abundance (log10) |
| --- | --- |
| ACACGGACATGGACCGGTTTTCCCGGTAATCCGTATTTGTC (site ACACGGACTGA) | 0.491 |
| ACACGGACATGGACCGGTTTTCCCGGTAATCCGTATTTGTC (site ACACGTACTGA) | 0 |
| ACACGTCCATGGACCGGTTTTCCCGGTAATCCGTATTTGAT (site ACACGTCCTAT) | 1.56 |
| ACACTAGCATGGACCGGTTTTCCCGGTAATCCGTATTTGTG (site ACACTAGCTCA) | 1.62 |
| ACACTATCATGGACCGGTTTTCCCGGTAATCCGTATTTGCA (site ACAATATCTTG) | 2.11 |
| ACACTATCATGGACCGGTTTTCCCGGTAATCCGTATTTGCA (site ACACTATCTTG) | 2.85 |
| ACACTATCATGGACCGGTTTTCCCGGTAATCCGTATTTGCA (site ACAGTATCTTG) | 1.89 |
| ACACTATCATGGACCGGTTTTCCCGGTAATCCGTATTTGCA (site ACATTATCTTG) | 2.21 |
| ACAGAAACATGGACCGGTTTTCCCGGTAATCCGTATTTGCA (site ACAGAAACTTG) | 2.78 |
| ACAGAAACATGGACCGGTTTTCCCGGTAATCCGTATTTGCA (site ACAGTATCTTG) | 0 |
| ACAGCAGCATGGACCGGTTTTCCCGGTAATCCGTATTTGCA (site ACAGCAGCTTG) | 2.49 |
| ACAGCAGCATGGACCGGTTTTCCCGGTAATCCGTATTTGCA (site ACAGTATCTTG) | 0 |
| ACAGCGTCATGGACCGGTTTTCCCGGTAATCCGTATTTGAC (site ACAGCGTCTGT) | 3.29 |
| ACAGCTACATGGACCGGTTTTCCCGGTAATCCGTATTTGTG (site ACAACTACTCA) | 0.815 |
| ACAGCTACATGGACCGGTTTTCCCGGTAATCCGTATTTGTG (site ACACCTACTCA) | 0.156 |
| ACAGCTACATGGACCGGTTTTCCCGGTAATCCGTATTTGTG (site ACAGCTACTCA) | 1.44 |
| ACAGCTACATGGACCGGTTTTCCCGGTAATCCGTATTTGTG (site ACATCTACTCA) | 0.0498 |
| ACAGGAACATGGACCGGTTTTCCCGGTAATCCGTATTTGTC (site ACAAGAACTGA) | 1.18 |
| ACAGGAACATGGACCGGTTTTCCCGGTAATCCGTATTTGTC (site ACACGAACTGA) | 0.428 |
| ACAGGAACATGGACCGGTTTTCCCGGTAATCCGTATTTGTC (site ACAGGAACTGA) | 2.43 |
| ACAGGAACATGGACCGGTTTTCCCGGTAATCCGTATTTGTC (site ACATGAACTGA) | 0.289 |
| ACAGGACCATGGACCGGTTTTCCCGGTAATCCGTATTTGGA (site ACAGGACCTTC) | 0.00625 |
| ACAGGATCATGGACCGGTTTTCCCGGTAATCCGTATTTGCC (site ACAGGATCTGG) | 2.27 |
| ACAGGATCATGGACCGGTTTTCCCGGTAATCCGTATTTGCC (site ACAGTATCTTG) | 0 |

| Sequence | recombinant UMI read abundance (log10) |
| --- | --- |
| ACAGGGTCATGGACCGGTTTTCCCGGTAATCCGTATTTGCA (site ACAGGGTCTTG) | 3.2 |
| ACAGGGTCATGGACCGGTTTTCCCGGTAATCCGTATTTGCA (site ACAGTATCTTG) | 1.89 |
| ACAGTACCATGGACCGGTTTTCCCGGTAATCCGTATTTGCC (site ACAGTACCTGG) | 0 |
| ACAGTACCATGGACCGGTTTTCCCGGTAATCCGTATTTGCC (site ACAGTATCTTG) | 0.966 |
| ACAGTAGCATGGACCGGTTTTCCCGGTAATCCGTATTTGTA (site ACAGTAGCTTA) | 2.87 |
| ACAGTAGCATGGACCGGTTTTCCCGGTAATCCGTATTTGTA (site ACAGTATCTTG) | 1.49 |
| ACAGTATCATGGACCGGTTTTCCCGGTAATCCGTATTTGCG (site ACAGTATCTAG) | 2.18 |
| ACAGTATCATGGACCGGTTTTCCCGGTAATCCGTATTTGCG (site ACAGTATCTCG) | 3.51 |
| ACAGTATCATGGACCGGTTTTCCCGGTAATCCGTATTTGCG (site ACAGTATCTGG) | 2.14 |
| ACAGTATCATGGACCGGTTTTCCCGGTAATCCGTATTTGCG (site ACAGTATCTTG) | 2.57 |
| ACAGTATCATGGACCGGTTTTCCCGGTAATCCGTATTTGTG (site ACAGTATCTCA) | 3.03 |
| ACAGTATCATGGACCGGTTTTCCCGGTAATCCGTATTTGTG (site ACAGTATCTTG) | 1.03 |
| ACATAAGCATGGACCGGTTTTCCCGGTAATCCGTATTTGAA (site ACATAAGCTTT) | 2.7 |
| ACATATACATGGACCGGTTTTCCCGGTAATCCGTATTTGTG (site ACATATACTCA) | 1.81 |
| ACATATACATGGACCGGTTTTCCCGGTAATCCGTATTTGTG (site ACATCTACTCA) | 0.0121 |
| ACATATACATGGACCGGTTTTCCCGGTAATCCGTATTTGTG (site ACATGTACTCA) | 0.021 |
| ACATATACATGGACCGGTTTTCCCGGTAATCCGTATTTGTG (site ACATTTACTCA) | 0.0115 |
| ACATCCACATGGACCGGTTTTCCCGGTAATCCGTATTTGTG (site ACATCAACTCA) | 0.0218 |
| ACATCCACATGGACCGGTTTTCCCGGTAATCCGTATTTGTG (site ACATCCACTCA) | 0.309 |
| ACATCCACATGGACCGGTTTTCCCGGTAATCCGTATTTGTG (site ACATCGACTCA) | 0.00941 |
| ACATCCACATGGACCGGTTTTCCCGGTAATCCGTATTTGTG (site ACATCTACTCA) | 0.0155 |
| ACATCTACATGGACCGGTTTTCCCGGTAATCCGTATTTGCG (site ACATCTACTCA) | 0.195 |
| ACATCTACATGGACCGGTTTTCCCGGTAATCCGTATTTGCG (site ACATCTACTCC) | 0.0147 |
| ACATCTACATGGACCGGTTTTCCCGGTAATCCGTATTTGCG (site ACATCTACTCG) | 1.2 |

| Sequence | recombinant UMI read abundance (log10) |
| --- | --- |
| ACATCTACATGGACCGGTTTTCCCGGTAATCCGTATTTGCG (site ACATCTACTCT) | 0.353 |
| ACATCTACATGGACCGGTTTTCCCGGTAATCCGTATTTGGG (site ACATCTACTCA) | 0.0151 |
| ACATCTACATGGACCGGTTTTCCCGGTAATCCGTATTTGGG (site ACATCTACTCC) | 0.54 |
| ACATCTACATGGACCGGTTTTCCCGGTAATCCGTATTTGGG (site ACATCTACTCG) | 0.00576 |
| ACATCTACATGGACCGGTTTTCCCGGTAATCCGTATTTGGG (site ACATCTACTCT) | 0.0169 |
| ACATCTACATGGACCGGTTTTCCCGGTAATCCGTATTTGTG (site AAATCTACTCA) | 0.00563 |
| ACATCTACATGGACCGGTTTTCCCGGTAATCCGTATTTGTG (site ACAACTACTCA) | 0.00896 |
| ACATCTACATGGACCGGTTTTCCCGGTAATCCGTATTTGTG (site ACACCTACTCA) | 0.00963 |
| ACATCTACATGGACCGGTTTTCCCGGTAATCCGTATTTGTG (site ACAGCTACTCA) | 0.0992 |
| ACATCTACATGGACCGGTTTTCCCGGTAATCCGTATTTGTG (site ACATATACTCA) | 0.324 |
| ACATCTACATGGACCGGTTTTCCCGGTAATCCGTATTTGTG (site ACATCAACTCA) | 0.0141 |
| ACATCTACATGGACCGGTTTTCCCGGTAATCCGTATTTGTG (site ACATCCACTCA) | 0.0072 |
| ACATCTACATGGACCGGTTTTCCCGGTAATCCGTATTTGTG (site ACATCGACTCA) | 0.0136 |
| ACATCTACATGGACCGGTTTTCCCGGTAATCCGTATTTGTG (site ACATCTACTAA) | 0.044 |
| ACATCTACATGGACCGGTTTTCCCGGTAATCCGTATTTGTG (site ACATCTACTCA) | 0.552 |
| ACATCTACATGGACCGGTTTTCCCGGTAATCCGTATTTGTG (site ACATCTACTCC) | 0.0178 |
| ACATCTACATGGACCGGTTTTCCCGGTAATCCGTATTTGTG (site ACATCTACTCG) | 0.279 |
| ACATCTACATGGACCGGTTTTCCCGGTAATCCGTATTTGTG (site ACATCTACTCT) | 0.188 |
| ACATCTACATGGACCGGTTTTCCCGGTAATCCGTATTTGTG (site ACATCTACTGA) | 0 |
| ACATCTACATGGACCGGTTTTCCCGGTAATCCGTATTTGTG (site ACATCTACTTA) | 0 |
| ACATCTACATGGACCGGTTTTCCCGGTAATCCGTATTTGTG (site ACATCTCCTCA) | 0.0291 |
| ACATCTACATGGACCGGTTTTCCCGGTAATCCGTATTTGTG (site ACATCTGCTCA) | 0.0534 |
| ACATCTACATGGACCGGTTTTCCCGGTAATCCGTATTTGTG (site ACATCTTCTCA) | 0.234 |
| ACATCTACATGGACCGGTTTTCCCGGTAATCCGTATTTGTG (site ACATGTACTCA) | 0.023 |
